Measurements as given in publication PMC4281103 (Journal of Medicinal Chemistry, 2014).

Assays:
[1] = test system: male Sprague–Dawley rats; test: Rat spontaneous locomotor activity; assay type: in vivo; details: acute ip; 2 1.0 mg/kg, 24 1.0 mg/kg, 36 0.3 mg/kg; total ambulatory counts over 60 min
[2] = molecular target: human μ-opioid receptor (Homo sapiens, UniProt P35372); test: Inhibition of forskolin-induced cAMP accumulation in MOR-CHO cells; assay type: cell-based; details: selectivity for KOR
Chain of human μ-opioid receptor (P35372 whole entry): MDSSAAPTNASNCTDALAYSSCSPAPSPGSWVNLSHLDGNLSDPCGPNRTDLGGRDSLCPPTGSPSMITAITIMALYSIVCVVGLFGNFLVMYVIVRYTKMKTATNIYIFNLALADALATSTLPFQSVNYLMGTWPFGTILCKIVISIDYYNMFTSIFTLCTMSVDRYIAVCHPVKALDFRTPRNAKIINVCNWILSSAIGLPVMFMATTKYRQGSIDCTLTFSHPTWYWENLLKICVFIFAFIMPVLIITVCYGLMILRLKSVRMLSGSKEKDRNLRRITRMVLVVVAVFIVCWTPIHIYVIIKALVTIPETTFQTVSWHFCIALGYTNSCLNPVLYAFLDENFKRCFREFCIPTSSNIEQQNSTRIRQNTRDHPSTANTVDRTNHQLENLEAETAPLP

[3] = test system: male Sprague–Dawley rats; test: Rat reinstatement assay: cocaine-prime-induced reinstatement of drug seeking; assay type: in vivo; details: for inactive lever pressing during self-administration, extinction and reinstatement: 2 1.0 mg/kg, 24 1.0 mg/kg, 36 0.3 mg/kg; for dose required to significantly reduce active lever responses: ip, cocaine-prime-induced reinstatement, rat
[4] = test system: male Sprague–Dawley rats; details: rat, in vivo; cited from earlier work
[5] = molecular target: human κ-opioid receptor (Homo sapiens, UniProt P41145); assay type: cell-based
Chain of human κ-opioid receptor (P41145 whole entry): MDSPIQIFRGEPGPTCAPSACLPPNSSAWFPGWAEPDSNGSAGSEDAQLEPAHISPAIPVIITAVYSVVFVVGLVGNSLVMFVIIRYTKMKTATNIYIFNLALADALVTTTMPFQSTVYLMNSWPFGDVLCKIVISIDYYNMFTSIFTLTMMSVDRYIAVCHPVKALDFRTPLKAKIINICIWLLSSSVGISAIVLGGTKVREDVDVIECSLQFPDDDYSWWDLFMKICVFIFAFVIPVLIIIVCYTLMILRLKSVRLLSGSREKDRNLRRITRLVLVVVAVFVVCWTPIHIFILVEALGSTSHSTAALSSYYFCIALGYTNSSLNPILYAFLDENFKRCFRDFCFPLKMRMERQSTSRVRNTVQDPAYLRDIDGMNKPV

Row | Compound | effect on spontaneous locomotor activity vs vehicle-treated animals [1] | activity at the MOR [2] | inactive lever pressing during self-administration, extinction and reinstatement [3] | dose required to significantly reduce active lever responses [3] [mg/kg] | further results
1 | C#Cc1occc1[C@@H]1C[C@]2(C)[C@H]3C(=O)[C@@H](OC(C)=O)C[C@@H](C(=O)OC)[C@]3(C)CC[C@H]2C(=O)O1 [Compound 36] | no significant difference | no activity at the MOR | no significant changes | 0.1 | 
2 | COC(=O)[C@@H]1C[C@H](OC(C)=O)C(=O)[C@H]2[C@@]1(C)CC[C@H]1C(=O)O[C@H](c3ccoc3C)C[C@]21C [Compound 24] | no significant difference | no activity at the MOR | no significant changes |  | 
3 | COC(=O)[C@@H]1C[C@H](OC(C)=O)C(=O)[C@H]2[C@@]1(C)CC[C@H]1C(=O)O[C@H](c3ccoc3)C[C@]21C [Compound 1, Salvinorin A] |  |  |  |  | effect on drug-seeking behavior and spontaneous locomotor activity [4]: reduces drug-seeking behavior at a dose that does not affect spontaneous locomotor activity
4 | COC(=O)[C@@H]1C[C@H](OC(C)=O)C(=O)[C@H]2[C@@]1(C)CC[C@H]1C(=O)O[C@H](c3ccoc3C#N)C[C@]21C [Compound 50, (2S,4aR,6aR,7R,9S,10aS,10bR)-Methyl 9-Acetoxy-2-(2-cyanofuran-3-yl)-6a,10b-dimethyl-4,10-dioxododecahydro-1H-benzo[f]isochromene-7-carboxylate] |  |  |  |  | times less potent than 36 (KOR) [5]: more than 500 times
5 | COC(=O)[C@@H]1C[C@H](OC(C)=O)C(=O)[C@H]2[C@@]1(C)CC[C@H]1C(=O)O[C@H](c3ccoc3C=O)C[C@]21C [Compound 49, (2S,4aR,6aR,7R,9S,10aS,10bR)-Methyl 9-Acetoxy-2-(2-formylfuran-3-yl)-6a,10b-dimethyl-4,10-dioxododecahydro-1H-benzo[f]isochromene-7-carboxylate] |  |  |  |  | times less potent than 29 (KOR) [5]: approximately 7 times
6 | COC(=O)[C@@H]1C[C@H](OC(C)=O)C(=O)[C@H]2[C@@]1(C)CC[C@H]1C(=O)O[C@H](c3ccoc3Br)C[C@]21C [Compound 2] | no significant difference | no activity at the MOR | no significant changes | 0.3 | 
